Measured values as given in the NIST ThermoML archive (doi:10.1007/s10765-006-0056-z).
Numbers after ± are expanded uncertainties.

Experiment: molar heat capacity at constant volume; xn = mol fraction of the nth substance listed

CCCCCCCCCC [decane] + O=C=O
Conditions	molar heat capacity at constant volume [J/K/mol]
443.07 K, Fluid (supercritical or subcritical phases), Mass density=374.7 kg/m3, Isochoric Heat Capacity Apparatus, x1 = 0.095	344.18 ± 6.9
443.68 K, Fluid (supercritical or subcritical phases), Mass density=374.7 kg/m3, Isochoric Heat Capacity Apparatus, x1 = 0.095	343.49 ± 6.9
444.49 K, Fluid (supercritical or subcritical phases), Mass density=374.7 kg/m3, Isochoric Heat Capacity Apparatus, x1 = 0.095	342.85 ± 6.9
447.32 K, Fluid (supercritical or subcritical phases), Mass density=457.5 kg/m3, Isochoric Heat Capacity Apparatus, x1 = 0.178	485.87 ± 9.7
447.32 K, Liquid, iso, x1 = 0.178	568.28 ± 11
447.95 K, Fluid (supercritical or subcritical phases), Mass density=457.5 kg/m3, Isochoric Heat Capacity Apparatus, x1 = 0.178	478.12 ± 9.6
448.27 K, Fluid (supercritical or subcritical phases), Mass density=457.5 kg/m3, Isochoric Heat Capacity Apparatus, x1 = 0.178	482.3 ± 9.7
448.55 K, Fluid (supercritical or subcritical phases), Mass density=457.5 kg/m3, Isochoric Heat Capacity Apparatus, x1 = 0.178	479.96 ± 9.6
449.12 K, Fluid (supercritical or subcritical phases), Mass density=398.3 kg/m3, Isochoric Heat Capacity Apparatus, x1 = 0.095	331.01 ± 6.6
451.39 K, Fluid (supercritical or subcritical phases), Mass density=201.8 kg/m3, Isochoric Heat Capacity Apparatus, x1 = 0.178	488.2 ± 9.8
451.39 K, Liquid, iso, x1 = 0.178	574.18 ± 12
452.33 K, Fluid (supercritical or subcritical phases), Mass density=457.5 kg/m3, Isochoric Heat Capacity Apparatus, x1 = 0.178	465.26 ± 9.3
452.33 K, Fluid (supercritical or subcritical phases), Mass density=509.4 kg/m3, Isochoric Heat Capacity Apparatus, x1 = 0.095	318.95 ± 6.4
453.23 K, Fluid (supercritical or subcritical phases), Mass density=457.5 kg/m3, Isochoric Heat Capacity Apparatus, x1 = 0.178	462.99 ± 9.3
457.12 K, Fluid (supercritical or subcritical phases), Mass density=374.7 kg/m3, Isochoric Heat Capacity Apparatus, x1 = 0.095	340.82 ± 6.8
457.77 K, Liquid, iso, x1 = 0.178	595.83 ± 12
459 K, Fluid (supercritical or subcritical phases), Mass density=477.6 kg/m3, Isochoric Heat Capacity Apparatus, x1 = 0.095	323.65 ± 6.5
460.15 K, Liquid, iso, x1 = 0.178	606.1 ± 12
460.39 K, Fluid (supercritical or subcritical phases), Mass density=320.2 kg/m3, Isochoric Heat Capacity Apparatus, x1 = 0.095	354.21 ± 7.1
460.69 K, Fluid (supercritical or subcritical phases), Mass density=320.2 kg/m3, Isochoric Heat Capacity Apparatus, x1 = 0.095	351.33 ± 7
460.89 K, Fluid (supercritical or subcritical phases), Mass density=320.2 kg/m3, Isochoric Heat Capacity Apparatus, x1 = 0.095	350 ± 7
463.26 K, Fluid (supercritical or subcritical phases), Mass density=87 kg/m3, Isochoric Heat Capacity Apparatus, x1 = 0.095	712.69 ± 14
463.26 K, Fluid (supercritical or subcritical phases), Mass density=398.3 kg/m3, Isochoric Heat Capacity Apparatus, x1 = 0.095	334.16 ± 6.7
463.45 K, Fluid (supercritical or subcritical phases), Mass density=457.5 kg/m3, Isochoric Heat Capacity Apparatus, x1 = 0.178	459.11 ± 9.2
463.65 K, Fluid (supercritical or subcritical phases), Mass density=87 kg/m3, Isochoric Heat Capacity Apparatus, x1 = 0.095	685.49 ± 14
463.85 K, Fluid (supercritical or subcritical phases), Mass density=87 kg/m3, Isochoric Heat Capacity Apparatus, x1 = 0.095	688.16 ± 14
464.05 K, Fluid (supercritical or subcritical phases), Mass density=87 kg/m3, Isochoric Heat Capacity Apparatus, x1 = 0.095	691.36 ± 14
465.43 K, Fluid (supercritical or subcritical phases), Mass density=87 kg/m3, Isochoric Heat Capacity Apparatus, x1 = 0.095	690.82 ± 14
466.3 K, Fluid (supercritical or subcritical phases), Mass density=408.8 kg/m3, Isochoric Heat Capacity Apparatus, x1 = 0.178	493.61 ± 9.9
467.05 K, Fluid (supercritical or subcritical phases), Mass density=408.8 kg/m3, Isochoric Heat Capacity Apparatus, x1 = 0.178	490.54 ± 9.8
